Results: US20230085307A1, “PYRIDAZINONE COMPOUND AND HERBICIDE” (NISSAN CHEMICAL CORPORATION, priority 2019, published 2023)

How the values were obtained:
southern crabgrass [1] = assay: Test Example 4: herbicidal effect by soil treatment (Table 19, symbol F); format: in vivo, southern crabgrass (Digitaria ciliaris); settings: amount of applied herbicide 320 g/ha
How it was run: (§1)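 Emulsion of test compound, water-diluted to predetermined amount, sprayed on soil after sowing (seed depth ~1.5 cm, sterilized diluvial soil). Greenhouse, 25–30° C. Effect graded at three weeks post-spray.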

green foxtail [2] = assay: Test Example 4: herbicidal effect by soil treatment (Table 19, symbol G); format: in vivo, green foxtail (Setaria viridis); settings: amount of applied herbicide 320 g/ha
How it was run: as §1

barnyard grass [3] = assay: Test Example 4: herbicidal effect by soil treatment (Table 19, symbol H); format: in vivo, barnyard grass (Echinochloa crus-galli); settings: amount of applied herbicide 320 g/ha
How it was run: as §1

wild oat [4] = assay: Test Example 4: herbicidal effect by soil treatment (Table 19, symbol I); format: in vivo, wild oat (Avena fatua); settings: amount of applied herbicide 320 g/ha
How it was run: as §1

blackgrass [5] = assay: Test Example 4: herbicidal effect by soil treatment (Table 19, symbol J); format: in vivo, blackgrass (Alopecurus myosuroides); settings: amount of applied herbicide 320 g/ha
How it was run: as §1

Italian ryegrass [6] = assay: Test Example 4: herbicidal effect by soil treatment (Table 19, symbol K); format: in vivo, Italian ryegrass (Lolium multiflorum); settings: amount of applied herbicide 320 g/ha
How it was run: as §1

windgrass [7] = assay: Test Example 4: herbicidal effect by soil treatment (Table 19, symbol L); format: in vivo, windgrass (Apera spica-venti); settings: amount of applied herbicide 320 g/ha
How it was run: as §1

velvetleaf [8] = assay: Test Example 4: herbicidal effect by soil treatment (Table 19, symbol M); format: in vivo, velvetleaf (Abutilon theophrasti); settings: amount of applied herbicide 320 g/ha
How it was run: as §1

redroot pigweed [9] = assay: Test Example 4: herbicidal effect by soil treatment (Table 19, symbol N); format: in vivo, redroot pigweed (Amaranthus retroflexus); settings: amount of applied herbicide 320 g/ha
How it was run: as §1

lambsquarters [10] = assay: Test Example 4: herbicidal effect by soil treatment (Table 19, symbol O); format: in vivo, lambsquarters (Chenopodium album); settings: amount of applied herbicide 320 g/ha
How it was run: as §1

chickweed [11] = assay: Test Example 4: herbicidal effect by soil treatment (Table 19, symbol P); format: in vivo, common chickweed (Stellaria media); settings: amount of applied herbicide 320 g/ha
How it was run: as §1

false cleavers = assay: Test Example 4: herbicidal effect by soil treatment (Table 19, symbol Q); format: in vivo, false cleavers (Galium spurium); settings: amount of applied herbicide 320 g/ha
How it was run: as §1

persian speedwell [12] = assay: Test Example 4: herbicidal effect by soil treatment (Table 19, symbol R); format: in vivo, Persian speedwell (Veronica persica); settings: amount of applied herbicide 320 g/ha
How it was run: as §1

southern crabgrass [13] = assay: Test Example 5: herbicidal effect by foliage application, plastic box (Table 20, symbol F); format: in vivo, southern crabgrass (Digitaria ciliaris); settings: foliage application, 320 g/ha, three weeks after application
How it was run: (§2)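 Post-emergence foliar test in sterilized diluvial soil. Compound applied as water-diluted emulsion at a predetermined rate to 14-day-old plants; evaluation at three weeks.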

green foxtail [14] = assay: Test Example 5: herbicidal effect by foliage application, plastic box (Table 20, symbol G); format: in vivo, green foxtail (Setaria viridis); settings: foliage application, 320 g/ha, three weeks after application
How it was run: as §2

barnyard grass [15] = assay: Test Example 5: herbicidal effect by foliage application, plastic box (Table 20, symbol H); format: in vivo, barnyard grass (Echinochloa crus-galli); settings: foliage application, 320 g/ha, three weeks after application
How it was run: as §2

wild oat [16] = assay: Test Example 5: herbicidal effect by foliage application, plastic box (Table 20, symbol I); format: in vivo, wild oat (Avena fatua); settings: foliage application, 320 g/ha, three weeks after application
How it was run: as §2

blackgrass [17] = assay: Test Example 5: herbicidal effect by foliage application, plastic box (Table 20, symbol J); format: in vivo, blackgrass (Alopecurus myosuroides); settings: foliage application, 320 g/ha, three weeks after application
How it was run: as §2

Italian ryegrass [18] = assay: Test Example 5: herbicidal effect by foliage application, plastic box (Table 20, symbol K); format: in vivo, Italian ryegrass (Lolium multiflorum); settings: foliage application, 320 g/ha, three weeks after application
How it was run: as §2

windgrass [19] = assay: Test Example 5: herbicidal effect by foliage application, plastic box (Table 20, symbol L); format: in vivo, windgrass (Apera spica-venti); settings: foliage application, 320 g/ha, three weeks after application
How it was run: as §2

velvetleaf [20] = assay: Test Example 5: herbicidal effect by foliage application, plastic box (Table 20, symbol M); format: in vivo, velvetleaf (Abutilon theophrasti); settings: foliage application, 320 g/ha, three weeks after application
How it was run: as §2

redroot pigweed [21] = assay: Test Example 5: herbicidal effect by foliage application, plastic box (Table 20, symbol N); format: in vivo, redroot pigweed (Amaranthus retroflexus); settings: foliage application, 320 g/ha, three weeks after application
How it was run: as §2

lambsquarters [22] = assay: Test Example 5: herbicidal effect by foliage application, plastic box (Table 20, symbol O); format: in vivo, lambsquarters (Chenopodium album); settings: foliage application, 320 g/ha, three weeks after application
How it was run: as §2

chickweed [23] = assay: Test Example 5: herbicidal effect by foliage application, plastic box (Table 20, symbol P); format: in vivo, common chickweed (Stellaria media); settings: foliage application, 320 g/ha, three weeks after application
How it was run: as §2

persian speedwell [24] = assay: Test Example 5: herbicidal effect by foliage application, plastic box (Table 20, symbol R); format: in vivo, Persian speedwell (Veronica persica); settings: foliage application, 320 g/ha, three weeks after application
How it was run: as §2

## Cc1nn(C)c(=O)c(-c2c(-c3ccc(SCC#N)cc3)sc3ccc(F)cc23)c1O [2-423]
Southern crabgrass [1]
  herbicidal effect, F: southern crabgrass: 0 (Herbicidal rate of 5% or less (almost no effect))
Green foxtail [2]
  herbicidal effect, G: green foxtail: 4 (Herbicidal rate of 70% or more and less than 90%)
Barnyard grass [3]
  herbicidal effect, H: barnyard grass: 1 (Herbicidal rate of 5% or more and less than 20%)
Wild oat [4]
  herbicidal effect, I: wild oat: 0 (Herbicidal rate of 5% or less (almost no effect))
Blackgrass [5]
  herbicidal effect, J: blackgrass: 0 (Herbicidal rate of 5% or less (almost no effect))
Italian ryegrass [6]
  herbicidal effect, K: Italian ryegrass: 3 (Herbicidal rate of 40% or more and less than 70%)
Windgrass [7]
  herbicidal effect, L: windgrass: 1 (Herbicidal rate of 5% or more and less than 20%)
Velvetleaf [8]
  herbicidal effect, M: velvetleaf: 1 (Herbicidal rate of 5% or more and less than 20%)
Redroot pigweed [9]
  herbicidal effect, N: redroot pigweed: 5 (Herbicidal rate of 90% or more (almost completely withered))
Lambsquarters [10]
  herbicidal effect, O: lambsquarters: 4 (Herbicidal rate of 70% or more and less than 90%)
Chickweed [11]
  herbicidal effect, P: chickweed: 5 (Herbicidal rate of 90% or more (almost completely withered))
False cleavers
  herbicidal effect, Q: false cleavers: 0 (Herbicidal rate of 5% or less (almost no effect))
Persian speedwell [12]
  herbicidal effect, R: persian speedwell: 4 (Herbicidal rate of 70% or more and less than 90%)
Southern crabgrass [13]
  F: southern crabgrass, herbicidal effect grade: 0 (Herbicidal rate of 5% or less (almost no effect))
Green foxtail [14]
  G: green foxtail, herbicidal effect grade: 5 (Herbicidal rate of 90% or more (almost completely withered))
Barnyard grass [15]
  H: barnyard grass, herbicidal effect grade: 5 (Herbicidal rate of 90% or more (almost completely withered))
Wild oat [16]
  I: wild oat, herbicidal effect grade: 5 (Herbicidal rate of 90% or more (almost completely withered))
Blackgrass [17]
  J: blackgrass, herbicidal effect grade: 4 (Herbicidal rate of 70% or more and less than 90%)
Italian ryegrass [18]
  K: Italian ryegrass, herbicidal effect grade: 5 (Herbicidal rate of 90% or more (almost completely withered))
Windgrass [19]
  L: windgrass, herbicidal effect grade: 5 (Herbicidal rate of 90% or more (almost completely withered))
Velvetleaf [20]
  M: velvetleaf, herbicidal effect grade: 5 (Herbicidal rate of 90% or more (almost completely withered))
Redroot pigweed [21]
  N: redroot pigweed, herbicidal effect grade: 5 (Herbicidal rate of 90% or more (almost completely withered))
Lambsquarters [22]
  O: lambsquarters, herbicidal effect grade: 5 (Herbicidal rate of 90% or more (almost completely withered))
Chickweed [23]
  P: chickweed, herbicidal effect grade: 5 (Herbicidal rate of 90% or more (almost completely withered))
Persian speedwell [24]
  R: persian speedwell, herbicidal effect grade: 5 (Herbicidal rate of 90% or more (almost completely withered))
